Test results reported in patent US10611750B2, “Tetrahydroquinoline compositions as bet bromodomain inhibitors” (FORMA Therapeutics, Inc., priority 2013, dated 2020).

Key:
[1] = biological target: T1, BRD4 Bromodomain 2 (BRD4 BD2) (Homo sapiens, UniProt O60885); experiment: AlphaScreen binding assay, BRD4 BD2; details: His-tagged BRD4 BD2 100 nM, biotinylated H4 (1-21) K5/8/12/16 tetra-acetylated peptide 100 nM, compounds listed under IC50 range headings
T1 construct: 333-460 were cloned, expressed, and purified to homogeneity
Protocol: The binding of Example compounds to BRD4 Bromodomain 1 and BRD4 Bromodomain 2 was assessed using 384-well AlphaScreen assay technology. His-epitope tagged BRD4 BD144-168 and BRD4 BD2333-460 were cloned, expressed, and purified to homogeneity. BRD4 BD1 and BRD4 BD2 binding and inhibition was assessed by monitoring the engagement of biotinylated Histone H4 (1-21) K5/8/12/16 tetra-acetylated peptide with the targets using the AlphaScreen technology (PerkinElmer). Specifically, in a 384-well black or white flat bottom plate, BRD4 BD1 (50 nM final) or BRD4 BD2 (100 nM final) was combined with peptide (50 nM final for BD1 or 100 nM final for BD2) in 50 mM HEPES (pH 7.3), 100 mM NaCl, 0.1% (w/v) BSA, and 0.01% (w/v) Triton X-100 either in the presence of DMSO (final 1.25% DMSO) or compound dilution series in DMSO. Alpha streptavidin donor beads and Nickel-chelate acceptor beads were added to a final concentration of 10 μg/ml each. After a minimum of 1 hour equilibration, plates were read on a BMG PHERAstar FS multi-label reader (BMG LabTech). The half maximal inhibitory concentration (IC50) values were calculated using IDBS Activity Base software with a four parameter logistic curve fit by the equation y=A+((B−A)/(1+((C/x)^D))), wherein A denotes the bottom plateau of the curve, B denotes the top plateau of the curve, C denotes the x value at the middle of the curve, D denotes the slope factor, x denotes the original known x values, and y denotes the original known y values. Data was fitted using the Levenburg Marquardt algorithm.

[2] = biological target: T2, BRD4 Bromodomain 1 (BRD4 BD1) (Homo sapiens, UniProt O60885); experiment: AlphaScreen binding assay, BRD4 BD1; details: His-tagged BRD4 BD1 50 nM, biotinylated H4 (1-21) K5/8/12/16 tetra-acetylated peptide 50 nM, compounds listed under IC50 range headings
T2 construct: 44-168 and BRD4 BD2
How it was run: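 Compound dilution series were mixed with His-tagged BRD4 bromodomain and biotinylated tetra-acetylated H4 (1-21) peptide at pH 7.3 (BD1 and peptide at 50 nM, BD2 and peptide at 100 nM). Donor and acceptor beads were then added, and plates were equilibrated at least 1 h before reading. IC50 values were fitted with a four-parameter logistic model.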

| Structure (SMILES) | IC50 [1] [nM] | IC50 [2] [nM] |
| --- | --- | --- |
| CC(=O)N1c2ccc(-c3cnn(C4CC4)c3)c(OCCC(F)(F)F)c2CC[C@@H]1C [I-41, (S)-1-(6-(1-cyclopropyl-1H-pyrazol-4-yl)-2-methyl-5-(3,3,3-trifluoropropoxy)-3,4-dihydroquinolin-1 (2H)-yl)ethanone] | 50 to 500 | 1000 to 10000 |
| CC(=O)N1c2ccc(-c3cnn(C4CC4)c3)c(OCS(N)(=O)=O)c2CC[C@@H]1C [I-45, (S)-(1-acetyl-6-(1-cyclopropyl-1H-pyrazol-4-yl)-2-methyl-1,2,3,4-tetrahydroquinolin-5-yloxy)methanesulfonamide] | ≥ 500 | ≥ 10000 |
| CC(=O)N1c2ccc(-c3cnn(C4CC4)c3)c(OCCC3COC3)c2CC[C@@H]1C [I-47, (S)-1-(6-(1-cyclopropyl-1H-pyrazol-4-yl)-2-methyl-5-(2-(oxetan-3-yl)ethoxy)-3,4-dihydroquinolin-1(2H)-yl)ethanone] | 50 to 500 | 1000 to 10000 |
| CC(=O)N1c2ccc(-c3cnn(C4CC4)c3)c(OCC3CNC3)c2CC[C@@H]1C [I-52, (S)-1-(5-(azetidin-3-ylmethoxy)-6-(1-cyclopropyl-1H-pyrazol-4-yl)-2-methyl-3,4-dihydroquinolin-1 (2H)-yl)ethanone] | ≥ 500 | ≥ 10000 |
| COC(=O)N1c2ccc(-c3cnn(C4CC4)c3)c(OC3CN(C(=O)OC(C)(C)C)C3)c2CC[C@@H]1C [I-58, (S)-methyl 5-(1-(tert-butoxycarbonyl)azetidin-3-yloxy)-6-(1-cyclopropyl-1H-pyrazol-4-yl)-2-methyl-3,4-dihydroquinoline-1(2H)-carboxylate] | ≥ 500 | ≥ 10000 |
| COC(=O)N1c2ccc(-c3cnn(C4CC4)c3)c(OC3CNC3)c2CC[C@@H]1C [I-59, (S)-methyl 5-(azetidin-3-yloxy)-6-(1-cyclopropyl-1H-pyrazol-4-yl)-2-methyl-3,4-dihydroquinoline-1(2H)-carboxylate] | ≥ 500 | 1000 to 10000 |
| COC(=O)N1c2ccc(-c3cnn(C4CC4)c3)c(OCC3(F)COC3)c2CC[C@@H]1C [I-65, (S)-methyl 6-(1-cyclopropyl-1H-pyrazol-4-yl)-5-((3-fluorooxetan-3-yl)methoxy)-2-methyl-3,4-dihydroquinoline-1(2H)-carboxylate] | 50 to 500 | 1000 to 10000 |
| CC(=O)N1c2ccc(-c3cnn(C4COC4)c3)c(Oc3nc4ccccc4o3)c2CC[C@@H]1C [I-79, (S)-1-(5-(benzo[d]oxazol-2-yloxy)-2-methyl-6-(1-(oxetan-3-yl)-1H-pyrazol-4-yl)-3,4-dihydroquinolin-1(2H)-yl)ethanone] | 50 to 500 | 100 to 1000 |
| CC(=O)N1c2ccc(-c3cnn(C4CC4)c3)c(Oc3nccc(C(F)(F)F)n3)c2CC[C@@H]1C [I-85, (S)-1-(6-(1-cyclopropyl-1H-pyrazol-4-yl)-2-methyl-5-(4-(trifluoromethyl)pyrimidin-2-yloxy)-3,4-dihydroquinolin-1 (2H)-yl)ethanone] | 50 to 500 | 1000 to 10000 |
| CC(=O)N1c2ccc(-c3cnn(C4CC4)c3)c(Oc3ncccc3Cl)c2CC[C@@H]1C [I-87, (S)-1-(5-(3-chloropyridin-2-yloxy)-6-(1-cyclopropyl-1H-pyrazol-4-yl)-2-methyl-3,4-dihydroquinolin-1 (2H)-yl)ethanone] | 50 to 500 | 1000 to 10000 |
| CC(=O)N1c2ccc(-c3cnn(C4CC4)c3)c(Oc3nc(C)cc(C)n3)c2CC[C@@H]1C [I-90, (S)-1-(6-(1-cyclopropyl-1H-pyrazol-4-yl)-5-(4,6-dimethylpyrimidin-2-yloxy)-2-methyl-3,4-dihydroquinolin-1 (2H)-yl)ethanone] | 50 to 500 | 1000 to 10000 |
| CC(=O)N1c2ccc(-c3cnn(C4CC4)c3)c(O/C=C/Cl)c2CC[C@@H]1C [I-277, (S,E)-1-(5-(2-chlorovinyloxy)-6-(1-cyclopropyl-1H-pyrazol-4-yl)-2-methyl-3,4-dihydroquinolin-1(2H)-yl)ethanone] | 50 to 500 | 1000 to 10000 |
| CNC(=O)COc1c(-c2cnn(C3COC3)c2)ccc2c1CC[C@H](C)N2C(C)=O [I-378] | 50 to 500 | 1000 to 10000 |
| CC(=O)N1c2ccc(-c3cnn(C4COC4)c3)c(OCc3ccno3)c2CC[C@@H]1C [I-379] | 50 to 500 | 1000 to 10000 |
| CC(=O)N1c2ccc(-c3cnn(C4COC4)c3)c(OCCNS(C)(=O)=O)c2CC[C@@H]1C [I-380] | 50 to 500 | 1000 to 10000 |
| CC(=O)N1c2ccc(-c3cnn(C4CC4)c3)c(OCc3ccno3)c2CC[C@@H]1C [I-381] | 50 to 500 | 1000 to 10000 |
| CNC(=O)COc1c(-c2cnn(C3CC3)c2)ccc2c1CC[C@H](C)N2C(C)=O [I-383] | 50 to 500 | 1000 to 10000 |
| CC(=O)N1c2ccc(-c3cnn(C4CC4)c3)c(OC3COC3)c2CC[C@@H]1C [I-384] | 50 to 500 | 1000 to 10000 |
| CC(=O)N1c2ccc(-c3cnn(C4CC4)c3)c(OCCN(C)C)c2CC[C@@H]1C [I-386] | ≥ 500 | 1000 to 10000 |
| CC(=O)N1c2ccc(-c3cnn(C4CC4)c3)c(OCC(N)=O)c2CC[C@@H]1C [I-391] | ≥ 500 | 1000 to 10000 |
| CC(=O)N1c2ccc(-c3cnn(C4CC4)c3)c(OCc3ccccc3)c2CC[C@@H]1C [I-393] | < 50 | 1000 to 10000 |
| CC(=O)N1c2ccc(-c3cnn(C4CC4)c3)c(OCC#N)c2CC[C@@H]1C [I-397] | 50 to 500 | 1000 to 10000 |

| Structure (SMILES) | IC50 [1] [nM] | IC50 [2] [nM] |
| --- | --- | --- |
| CC(=O)N1c2ccc(-c3cnn(C4CC4)c3)c(OCc3cccnc3)c2CC[C@@H]1C [I-399] | 50 to 500 | 1000 to 10000 |
| CC(=O)N1c2ccc(-c3cnn(C4CC4)c3)c(OCc3ccccn3)c2CC[C@@H]1C [I-403] | 50 to 500 | 1000 to 10000 |
| COc1c(-c2cnn(C3CC3)c2)ccc2c1CC[C@H](C)N2C(C)=O [I-404] | 50 to 500 | 1000 to 10000 |
| CC(=O)N1c2ccc(-c3cnn(C4CC4)c3)c(OCc3ccn(C)n3)c2CC[C@@H]1C [I-405] | 50 to 500 | 1000 to 10000 |
| CC(=O)N1c2ccc(-c3cnn(C4CC4)c3)c(OCc3cncs3)c2CC[C@@H]1C [I-406] | 50 to 500 | 1000 to 10000 |
| CC(=O)N1c2ccc(-c3cnn(CC(C)(C)O)c3)c(OCC3CCOCC3)c2CC[C@@H]1C [I-414] | 50 to 500 | 1000 to 10000 |
| CC(=O)N1c2ccc(-c3cnn(CCS(C)(=O)=O)c3)c(OCC(=O)N(C)C)c2CC[C@@H]1C [I-417] | 50 to 500 | 1000 to 10000 |
| CC(=O)N1c2ccc(-c3cnn(CC(C)(C)O)c3)c(OCC(=O)N(C)C)c2CC[C@@H]1C [I-418] | 50 to 500 | 1000 to 10000 |
| CC(=O)N1c2ccc(-c3cnn(C4CCNCC4)c3)c(OCC(=O)N(C)C)c2CC[C@@H]1C [I-419] | 50 to 500 | 1000 to 10000 |
| CC(=O)N1c2ccc(-c3cnn(CC(C)(C)O)c3)c(OCC(C)C)c2CC[C@@H]1C [I-421] | 50 to 500 | 1000 to 10000 |
| CC(=O)N1c2ccc(-c3cnn(CCS(C)(=O)=O)c3)c(OCC(=O)N3CCCC3)c2CC[C@@H]1C [I-428] | 50 to 500 | 1000 to 10000 |
| CC(=O)N1c2ccc(-c3cnn(CC(C)(C)O)c3)c(OCC(=O)N3CCCC3)c2CC[C@@H]1C [I-429] | 50 to 500 | 1000 to 10000 |
| CC(=O)N1c2ccc(-c3cnn(CCO)c3)c(OCC(=O)N3CCCC3)c2CC[C@@H]1C [I-430] | 50 to 500 | 1000 to 10000 |
| CC(=O)N1c2ccc(-c3cnn(CCS(C)(=O)=O)c3)c(OC[C@H]3CCC(=O)N3)c2CC[C@@H]1C [I-432] | 50 to 500 | 1000 to 10000 |
| CC(=O)N1c2ccc(-c3cnn(CC(C)(C)O)c3)c(OC[C@H]3CCC(=O)N3)c2CC[C@@H]1C [I-433] | 50 to 500 | 1000 to 10000 |
| CC(=O)N1c2ccc(-c3cnn(CCO)c3)c(OC[C@H]3CCC(=O)N3)c2CC[C@@H]1C [I-434] | 50 to 500 | 1000 to 10000 |
| CC(=O)N1c2ccc(-c3cnn(C4CCNCC4)c3)c(OC[C@H]3CCC(=O)N3)c2CC[C@@H]1C [I-435] | 50 to 500 | 1000 to 10000 |
| CC(=O)N1c2ccc(-c3cnn(CCS(C)(=O)=O)c3)c(OCCN(C)S(C)(=O)=O)c2CC[C@@H]1C [I-436] | 50 to 500 | 1000 to 10000 |
| CC(=O)N1c2ccc(-c3cnn(CC(C)(C)O)c3)c(OCCN(C)S(C)(=O)=O)c2CC[C@@H]1C [I-437] | 50 to 500 | 1000 to 10000 |
| CC(=O)N1c2ccc(-c3cnn(CCO)c3)c(OCCN(C)S(C)(=O)=O)c2CC[C@@H]1C [I-438] | 50 to 500 | 1000 to 10000 |
| CC(=O)N1c2ccc(-c3cnn(C4CCNCC4)c3)c(OCCN(C)S(C)(=O)=O)c2CC[C@@H]1C [I-439] | 50 to 500 | 1000 to 10000 |
